Experimental findings from ChEMBL document CHEMBL2074500 (Drug Metab Dispos, 1999) are described below.

The target in data set [1] is T1, Solute carrier organic anion transporter family member 1A2 (Homo sapiens, UniProt P46721).
T1 sequence (P46721 whole entry): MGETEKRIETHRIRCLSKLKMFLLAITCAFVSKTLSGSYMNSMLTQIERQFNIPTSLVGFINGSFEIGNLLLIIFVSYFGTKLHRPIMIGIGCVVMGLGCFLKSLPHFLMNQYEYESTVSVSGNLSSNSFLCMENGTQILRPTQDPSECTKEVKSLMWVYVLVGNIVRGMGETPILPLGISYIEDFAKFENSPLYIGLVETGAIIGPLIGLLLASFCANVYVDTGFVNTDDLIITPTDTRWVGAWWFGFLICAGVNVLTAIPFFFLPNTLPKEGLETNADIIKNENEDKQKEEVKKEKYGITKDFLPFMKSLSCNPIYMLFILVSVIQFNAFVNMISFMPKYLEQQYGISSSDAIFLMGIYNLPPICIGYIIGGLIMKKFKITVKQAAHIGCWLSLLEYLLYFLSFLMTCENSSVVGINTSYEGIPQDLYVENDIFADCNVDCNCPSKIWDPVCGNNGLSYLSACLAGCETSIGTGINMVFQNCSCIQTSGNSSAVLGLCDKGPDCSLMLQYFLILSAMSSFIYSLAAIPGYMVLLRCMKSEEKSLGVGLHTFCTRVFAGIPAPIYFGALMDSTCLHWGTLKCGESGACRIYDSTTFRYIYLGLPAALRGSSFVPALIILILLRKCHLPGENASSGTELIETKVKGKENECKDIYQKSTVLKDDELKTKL
As to the kind of experiment: TP_TRANSPORTER: inhibition of Fexofenadine uptake (Fexofenadine: 2 uM, Verapamil: 100 uM) in Xenopus laevis oocytes. Conditions: probe Fexofenadine. The class given is functional, cell-based, Oocyte.

The target in data set [2] is T2, ATP-dependent translocase ABCB1 (Mus musculus, UniProt P21447). Kind of data set: TP_TRANSPORTER: increase in spleen concentration in mdr1a(-/-) mouse. The class given is functional, organism-based. The conditions noted are these: in vivo.
T2 sequence (P21447 whole entry): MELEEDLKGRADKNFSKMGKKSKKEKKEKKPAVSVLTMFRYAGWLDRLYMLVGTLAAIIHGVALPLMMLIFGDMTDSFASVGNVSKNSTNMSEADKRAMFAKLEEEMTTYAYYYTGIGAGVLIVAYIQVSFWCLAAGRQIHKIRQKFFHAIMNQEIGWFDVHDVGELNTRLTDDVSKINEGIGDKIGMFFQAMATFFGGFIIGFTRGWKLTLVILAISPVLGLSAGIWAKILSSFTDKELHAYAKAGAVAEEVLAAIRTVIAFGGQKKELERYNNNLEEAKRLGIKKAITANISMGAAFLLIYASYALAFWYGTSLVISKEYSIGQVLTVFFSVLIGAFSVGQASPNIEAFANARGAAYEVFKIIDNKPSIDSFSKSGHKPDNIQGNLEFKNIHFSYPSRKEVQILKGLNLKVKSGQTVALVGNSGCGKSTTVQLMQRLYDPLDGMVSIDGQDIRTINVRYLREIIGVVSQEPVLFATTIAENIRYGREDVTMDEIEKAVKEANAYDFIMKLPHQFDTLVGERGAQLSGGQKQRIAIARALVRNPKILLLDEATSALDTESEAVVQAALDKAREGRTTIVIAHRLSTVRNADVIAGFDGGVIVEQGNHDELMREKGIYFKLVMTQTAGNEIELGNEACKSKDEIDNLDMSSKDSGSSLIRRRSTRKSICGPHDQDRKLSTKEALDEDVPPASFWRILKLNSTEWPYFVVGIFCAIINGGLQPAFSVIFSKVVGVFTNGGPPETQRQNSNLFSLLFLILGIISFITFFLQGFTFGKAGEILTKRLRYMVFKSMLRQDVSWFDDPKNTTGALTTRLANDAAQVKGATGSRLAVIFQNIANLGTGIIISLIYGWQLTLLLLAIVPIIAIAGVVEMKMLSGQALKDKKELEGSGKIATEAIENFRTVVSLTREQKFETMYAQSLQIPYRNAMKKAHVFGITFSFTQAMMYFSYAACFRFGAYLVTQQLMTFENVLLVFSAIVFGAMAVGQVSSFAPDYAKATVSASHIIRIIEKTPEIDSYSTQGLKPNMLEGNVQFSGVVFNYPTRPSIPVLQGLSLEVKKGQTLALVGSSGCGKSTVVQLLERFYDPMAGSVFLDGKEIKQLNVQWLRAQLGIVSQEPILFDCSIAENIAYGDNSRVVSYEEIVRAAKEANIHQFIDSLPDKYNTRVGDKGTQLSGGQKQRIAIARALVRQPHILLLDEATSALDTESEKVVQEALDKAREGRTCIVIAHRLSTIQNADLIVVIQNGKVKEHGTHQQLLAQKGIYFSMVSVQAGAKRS
The target of data set [3] is T2, ATP-dependent translocase ABCB1. As to the kind of experiment: TP_TRANSPORTER: increase in small intestine concentration in mdr1a(-/-) mouse. The format is functional, organism-based. Conditions: in vivo.
Data set [4] has the same target. Kind of data set: TP_TRANSPORTER: increase in plasma concentration in mdr1a(-/-) mouse. The class given is functional, organism-based. Conditions: in vivo.
For data set [5] the target is unchanged. As to the kind of experiment: TP_TRANSPORTER: increase in liver concentration in mdr1a(-/-) mouse. The class given is functional, organism-based. The conditions noted are these: in vivo.
For data set [6] the target is unchanged. Kind of data set: TP_TRANSPORTER: increase in kidney concentration in mdr1a(-/-) mouse. The format is functional, organism-based. The conditions noted are these: in vivo.
The target is the same in data set [7]. As to the kind of experiment: TP_TRANSPORTER: increase in heart concentration in mdr1a(-/-) mouse. The class given is functional, organism-based. Conditions: in vivo.
Data set [8] has as its target T1, Solute carrier organic anion transporter family member 1A2. Kind of data set: TP_TRANSPORTER: inhibition of Fexofenadine uptake (Fexofenadine: 2 uM, PSC-833: 100 uM) in Xenopus laevis oocytes. The class given is functional, cell-based, Oocyte. The conditions noted are these: probe Fexofenadine.
Data set [9] has the same target. As to the kind of experiment: TP_TRANSPORTER: inhibition of Fexofenadine uptake (Fexofenadine: 2 uM, Erythromycin: 100 uM) in Xenopus laevis oocytes. The format is functional, cell-based. Details: scale not given: the % may be the effect or the level left. Conditions: oocyte.
Data set [10] has the same target. Kind of data set: TP_TRANSPORTER: inhibition of Fexofenadine uptake (Fexofenadine: 2 uM, Saquinavir: 100 uM) in Xenopus laevis oocytes. The class given is functional, cell-based. Details: scale not given: the % may be the effect or the level left. The conditions noted are these: oocyte.
Data set [11] shares this target. As to the kind of experiment: TP_TRANSPORTER: inhibition of Fexofenadine uptake (Fexofenadine: 2 uM, Indinavir: 100 uM) in Xenopus laevis oocytes. The class given is functional, cell-based. Details: scale not given: the % may be the effect or the level left. Conditions: oocyte.
Data set [12] shares this target. As to the kind of experiment: TP_TRANSPORTER: inhibition of Fexofenadine uptake (Fexofenadine: 2 uM, Quinidine: 100 uM) in Xenopus laevis oocytes. The format is functional, cell-based, Oocyte. The conditions noted are these: probe Fexofenadine, read-out: Activity.
The target is the same in data set [13]. Kind of data set: TP_TRANSPORTER: inhibition of Fexofenadine uptake (Fexofenadine: 2 uM, Ketoconazole: 100 uM) in Xenopus laevis oocytes. Details: scale not given: the % may be the effect or the level left. The conditions noted are these: oocyte. The format is functional, cell-based.
The target is the same in data set [14]. As to the kind of experiment: TP_TRANSPORTER: inhibition of Fexofenadine uptake (Fexofenadine: 2 uM, Lovastatin: 100 uM) in Xenopus laevis oocytes. The format is functional, cell-based, Oocyte. Conditions: probe Fexofenadine.
For data set [15] the target is unchanged. As to the kind of experiment: TP_TRANSPORTER: inhibition of Fexofenadine uptake (Fexofenadine: 2 uM, Nelfinavir: 100 uM) in Xenopus laevis oocytes. The class given is functional, cell-based. Details: scale not given: the % may be the effect or the level left. The conditions noted are these: oocyte.
Substrate in data set [16]: CC(C)(C(=O)O)c1ccc(C(O)CCCN2CCC(C(O)(c3ccccc3)c3ccccc3)CC2)cc1
As to the kind of experiment: TP_TRANSPORTER: uptake in Oatp2-expressing HeLa cells. The class given is functional, cell-based.

`COc1ccc(CCN(C)CCCC(C#N)(c2ccc(OC)c(OC)c2)C(C)C)cc1OC` (stereo unspecified) returned an inhibition at 100 µM in data set [1] of 100%.

`CC(C)(C(=O)O)c1ccc(C(O)CCCN2CCC(C(O)(c3ccccc3)c3ccccc3)CC2)cc1` (stereo unspecified) [FEXOFENADINE]: the Activity result in data set [2], in [3], in data set [4], in data set [5], in data set [6] and in data set [7] was “substrate [+]” each time.

As for `C/C=C/C[C@@H](C)C(=O)[C@H]1C(=O)N[C@@H](C(C)C)C(=O)N(C)CC(=O)N(C)[C@@H](CC(C)C)C(=O)N[C@@H](C(C)C)C(=O)N(C)[C@@H](CC(C)C)C(=O)N[C@@H](C)C(=O)N[C@H](C)C(=O)N(C)[C@@H](CC(C)C)C(=O)N(C)[C@@H](CC(C)C)C(=O)N(C)[C@@H](C(C)C)C(=O)N1C` [VALSPODAR], the inhibition at 100 µM in data set [8] was found to be 85%.

In turn, `CC[C@H]1OC(=O)[C@H](C)[C@@H](O[C@H]2C[C@@](C)(OC)[C@@H](O)[C@H](C)O2)[C@H](C)[C@@H](O[C@@H]2O[C@H](C)C[C@H](N(C)C)[C@H]2O)[C@](C)(O)C[C@@H](C)C(=O)[C@H](C)[C@@H](O)[C@]1(C)O` [ERYTHROMYCIN] registered an Activity in data set [9] of 66%.

In data set [10], `CC(C)(C)NC(=O)[C@@H]1C[C@@H]2CCCC[C@@H]2CN1C[C@@H](O)[C@H](Cc1ccccc1)NC(=O)[C@H](CC(N)=O)NC(=O)c1ccc2ccccc2n1` yielded an Activity of 105%.

In the case of `CC(C)(C)NC(=O)[C@@H]1CN(Cc2cccnc2)CCN1C[C@@H](O)C[C@@H](Cc1ccccc1)C(=O)N[C@H]1c2ccccc2C[C@H]1O.O`, in [11], the Activity is 70%.

For `C=C[C@H]1C[N@@]2CC[C@H]1C[C@@H]2[C@@H](O)c1ccnc2ccc(OC)cc12` [QUINIDINE], in data set [12], the inhibition at 100 µM was 91%.

Molecule `CC(=O)N1CCN(c2ccc(OCC3COC(Cn4ccnc4)(c4ccc(Cl)cc4Cl)O3)cc2)CC1` (stereo unspecified) [KETOCONAZOLE] had an Activity in data set [13] of 107%.

In the case of `CC[C@H](C)C(=O)O[C@H]1C[C@@H](C)C=C2C=C[C@H](C)[C@H](CC[C@@H]3C[C@@H](O)CC(=O)O3)[C@H]21` [LOVASTATIN], in data set [14], the inhibition at 100 µM turned out to be 95%.

Take `Cc1c(O)cccc1C(=O)N[C@@H](CSc1ccccc1)[C@H](O)CN1C[C@H]2CCCC[C@H]2C[C@H]1C(=O)NC(C)(C)C`: the Activity in data set [15] turned out to be 81%.

B1: Solute carrier organic anion transporter family member 1A4 (Rattus norvegicus) (protein)
chain: MGKSEKRVATHGVRCFAKIKMFLLALTCAYVSKSLSGTYMNSMLTQIERQFGIPTSIVGLINGSFEIGNLLLIIFVSYFGTKLHRPIMIGVGCAVMGLGCFLISLPHFLMGQYEYETILPTSNVSSNSFFCVENRSQTLNPTQDPSECVKEMKSLMWIYVLVGNIIRGIGETPIMPLGISYIEDFAKSENSPLYIGILETGMTIGPLIGLLLASSCANIYVDIESVNTDDLTITPTDTRWVGAWWIGFLVCAGVNILTSFPFFFFPKTLPKEGLQENVDGTENAKEKKHRKKAKEEKRGITKDFFVFMKSLSCNPIYMLFILISVLQFNAFINSFTFMPKYLEQQYGKSTAEVVFLMGLYMLPPICLGYLIGGLIMKKFKVTVKKAAHLAFWLCLSEYLLSFLSYVMTCDNFPVAGLTTSYEGVQHQLYVENKVLADCNTRCNCSTNTWDPVCGDNGLAYMSACLAGCEKSVGTGTNMVFQNCSCIQSSGNSSAVLGLCNKGPDCANKLQYFLIIAIFGCFIYSLAGIPGYMVLLRCIKSEEKSLGVGLHAFCIRILAGIPAPIYFGALIDRTCLHWGTLKCGEPGACRMYDINSFRRLYLGLPAALRGASFVPAFFILRLTRTFQFPGDIESSKTDHAEMKLTLKESECTEVLRSKVTED
In the case of B1, in data set [16], the Km (as a rule, the concentration of substrate that gives half-maximal velocity) amounted to 6 µM.
